# From paper PMC7008598 (Science signaling, 2019)
# T1: human TNFR1 ECD (Homo sapiens, UniProt P19438)
# T1 sequence (P19438 30-211 limits assumed): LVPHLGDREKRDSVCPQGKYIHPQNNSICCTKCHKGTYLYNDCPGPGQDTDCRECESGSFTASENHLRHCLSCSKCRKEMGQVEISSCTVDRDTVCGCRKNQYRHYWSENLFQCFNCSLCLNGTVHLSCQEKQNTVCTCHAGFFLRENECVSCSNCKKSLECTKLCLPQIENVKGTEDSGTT
# T2: TNFR1 ECD dimer (Homo sapiens, UniProt P19438)
# T2 sequence (P19438 30-211 limits assumed): T1 sequence (P19438 30-211 limits assumed)
# T3: TNFR1 PLAD dimer (Homo sapiens, UniProt P19438)
# T3 sequence (P19438 30-82): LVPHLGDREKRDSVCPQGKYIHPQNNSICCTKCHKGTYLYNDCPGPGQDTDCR
# T4: soluble FLAG-tagged lymphotoxin-α (LTα), P01374
# T4 chain: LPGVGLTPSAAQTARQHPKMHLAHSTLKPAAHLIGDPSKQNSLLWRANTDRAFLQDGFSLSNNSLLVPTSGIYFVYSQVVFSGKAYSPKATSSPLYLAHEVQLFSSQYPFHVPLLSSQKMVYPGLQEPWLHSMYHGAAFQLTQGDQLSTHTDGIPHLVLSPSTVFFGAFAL
# T5: recombinant human TNFR1 extracellular domain (human, UniProt P19438 30-211)
# T5 sequence (looked up): T1 sequence (P19438 30-211 limits assumed)
# B1: soluble FLAG-tagged lymphotoxin-α (LTα) (ligand, UniProt P01374 35-205, looked up)
# chain: T4 chain
# B2: FLAG-tagged TNFR1 PLAD (residues 30 to 82) (domain or fragment, UniProt P19438 30-82, looked up)
# chain: T3 sequence (P19438 30-82)
# Tests used:
# [1] = tested on: TNFR1-stimulated NF-κB activation; assay: LTα-induced NF-κB activation luciferase assay in HEK293 cells; assay type: cell-based, human
# [2] = tested on: basal NF-κB activation in TNFR1 KO HAP1 cells; assay: Basal NF-κB activation in TNFR1 KO HAP1 cells; assay type: cell-based, human
# human TNFR1 ECD = molecular target: T1, human TNFR1 ECD; assay: SPR binding assay on immobilized TNFR1 ECD
# [3] = tested on: TRADD-induced NF-κB activation; assay: TRADD-induced NF-κB activation in HEK293 cells; assay type: cell-based, human; conditions: HEK293, TRADD overexpression, 0.1 to 200 μM
# TNFR1 ECD dimer = molecular target: T2, TNFR1 ECD dimer; assay: Native gel characterization of soluble TNFR1 ECD dimer; assay type: biochemical; conditions: compounds 200 μM
# TNFR1 PLAD dimer = molecular target: T3, TNFR1 PLAD dimer; assay: Native gel characterization of soluble TNFR1 PLAD dimer; conditions: compounds 200 μM
# [4] = tested on: TNFR1-stimulated NF-κB activation; conditions: read-out: absolute IC50, inhibition of ligand-induced NF-κB activation; cited from earlier work
# [5] = molecular target: T4, soluble FLAG-tagged lymphotoxin-α …; assay: native gel or EMSA; conditions: remark: other sources report otherwise
# [6] = molecular target: T5, recombinant human TNFR1 extracellular …; assay: SPR
# native gel or EMSA = molecular target: the molecule itself; assay: native gel or EMSA
molecule,measurement,setting,value
COc1cc(C(=O)NS(=O)(=O)c2ccccc2C)ccc1Cc1cn(C)c2ccc(NC(=O)OC3CCCC3)cc12 [zafirlukast],extent of inhibition of NF-κB activation,"[1]; HEK293, LTα, maximal inhibition",55%
same,IC50 for inhibition of NF-κB in the presence of H398,[1]; presence of H398 antibody,unchanged
same,effect on basal level of NF-κB activation in TNFR1 KO cells (specificity),[2],almost no effect on basal activity
same,Kd,human TNFR1 ECD,86 µM
same,noncompetitive binding of LTα and compound to TNFR1 ECD,"human TNFR1 ECD; SPR, LTα 50 nM, compound 200 μM",equal to the sum of the individual response
same,LTα binding affinity to TNFR1 ECD in the presence of compound,"human TNFR1 ECD; SPR, compound at saturating 200 μM",essentially unchanged
same,competition with H398 for binding TNFR1,"human TNFR1 ECD; SPR, compounds 200 μM, H398 at 1.0 nM",did not compete with H398
same,effect on TRADD-induced NF-κB activation,[3],little effect
same,disruption of TNFR1 ECD dimer,TNFR1 ECD dimer,disrupted
same,disruption of soluble PLAD dimers,TNFR1 PLAD dimer,disrupted
same,IC50,[4],50 µM
B1,stoichiometry N,[5],3
same,Kd,[6],0.037 µM
B2,stoichiometry N,native gel or EMSA,2
